# Laboratory results: publication PMC9262865 (Chembiochem, 2022)
# Columns and labels:
# [1] = target: tyrosine phenol-lyase (wild type TPL) (Citrobacter freundii, UniProt P31013); experiment: absorbance titration at […] nm; type: binding
# [2] = target: T1, tyrosine phenol-lyase (M379A TPL) (Citrobacter freundii, UniProt P31013, M379A); experiment: X-ray crystal structure; type: binding
# [3] = target: T1, tyrosine phenol-lyase (M379A TPL); experiment: LDH-coupled steady-state kinetics of purified enzyme; type: biochemical
Structure (SMILES),Kd [1],Kd [2],"M379A TPL / k cat/K M, M^-1 s^-1 [3]"
CSCC[C@H](N)C(=O)O [L-methionine],790 µM,1740 µM,
"N[C@@H](Cc1ccc(O)cc1)C(=O)O [compound 1, L-tyrosine]",,,148 M^-1 s^-1 (kcat/KM)
"N[C@@H](Cc1ccc(O)c(F)c1)C(=O)O [compound 3, 3-F-L-tyrosine]",,,774 M^-1 s^-1 (kcat/KM)
